Experiments:
[1] = target: T1, NEP (membranes from rat kidney cortex) (Rattus norvegicus, UniProt P07861); experiment: In vitro NEP-inhibitory activity in rat kidney cortex membranes ([3H][Leu5]-enkephaline substrate); format: biochemical, male Sprague-Dawley rats; details: 20 minutes at 30° C.; [3H][Leu5]-enkephaline 15 nM
T1 construct: from tissue; host or cells: kidney cortex membranes of male Sprague-Dawley rats
T1 sequence (P07861 1-750): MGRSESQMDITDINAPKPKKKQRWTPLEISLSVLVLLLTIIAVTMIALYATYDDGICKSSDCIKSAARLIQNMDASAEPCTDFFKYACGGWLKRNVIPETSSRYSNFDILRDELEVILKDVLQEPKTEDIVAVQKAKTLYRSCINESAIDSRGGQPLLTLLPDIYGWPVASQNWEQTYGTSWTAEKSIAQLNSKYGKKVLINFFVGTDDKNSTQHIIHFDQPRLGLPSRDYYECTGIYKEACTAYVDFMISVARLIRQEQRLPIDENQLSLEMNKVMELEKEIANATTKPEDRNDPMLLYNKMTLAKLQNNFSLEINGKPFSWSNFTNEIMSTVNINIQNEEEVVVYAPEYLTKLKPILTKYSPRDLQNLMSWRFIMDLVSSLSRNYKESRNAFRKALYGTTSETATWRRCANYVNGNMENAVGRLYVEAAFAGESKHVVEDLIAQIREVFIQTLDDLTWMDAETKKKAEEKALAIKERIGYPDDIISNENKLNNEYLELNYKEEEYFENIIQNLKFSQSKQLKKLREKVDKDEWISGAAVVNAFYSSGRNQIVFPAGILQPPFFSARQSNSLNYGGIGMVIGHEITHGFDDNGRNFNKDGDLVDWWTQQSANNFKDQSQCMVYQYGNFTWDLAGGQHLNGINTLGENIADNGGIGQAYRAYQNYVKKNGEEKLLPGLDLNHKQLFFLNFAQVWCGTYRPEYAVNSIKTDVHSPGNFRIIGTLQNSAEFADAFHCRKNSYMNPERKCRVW
Procedure: (§1) a) NEP-inhibitory activity
The NEP-inhibitory activity was evaluated in membranes from rat kidney cortex prepared according to the procedure described by T. Maeda et al. in Biochim. Biophys. Acta 1983, 731(1), 115-120.
By working at 0°-4° C., kidneys were removed from male Sprague-Dawley rats weighing approximately 300 g.
Cortex was carefully dissected, finely minced and suspended in a homogenization buffer (10 mM sodium phosphate pH 7.4 containing 1 mM MgCl2, 30 mM NaCl, 0.02% NaN3) 1:15 weight/volume.
The tissue was then homogenized for 30 seconds using an Ultra-Turrax homogenizer.
Approximately 10 ml of homogenate were layered over 10 ml of sucrose (41% weight/volume) and centrifuged at 31200 rpm for 30 minutes at 4° C. in a fixed angle rotor. The membranes were collected from the buffer/sucrose interface, washed twice with 50 mM TRIS/HCl buffer (pH 7.4) and resuspended into the same buffer for storage.
The membranes were stored in small aliquots at -80° C. until use.
The NEP-inhibitory activity was evaluated according to the method described by C. Llorens et al., in Eur. J. Pharmacol., 69, (1981), 113-116, as reported hereinafter.
Aliquots of the membrane suspension prepared as above described (concentration 5 μg/ml of proteins) were preincubated in the presence of an aminopeptidase inhibitory (Bestatin--1 mM) for 10 minutes at 30° C.
[^3 H][Leu^5 ]-enkephaline (15 nM) and buffer TRIS/HCl pH 7.4 (50 mM) were added in order to obtain a final volume of 100 μl.
Incubation (20 minutes at 30° C.) was stopped by adding HCl 0.1M (100 μl).
The formation of the metabolite [^3 H]Tyr-Gly-Gly was quantified by chromatography on polystyrene columns (Porapak Q).

[2] = target: T2, ACE (purified by lung rabbit, EC 3.4.15.1) (Oryctolagus cuniculus, UniProt P12822); experiment: In vitro ACE-inhibitory activity (FAPGG substrate, spectrophotometric); format: biochemical; details: 37° C.; FAPGG 0.8 mM
T2 construct: purchased SIGMA; host or cells: rabbit lung
T2 sequence (P12822 34-1310): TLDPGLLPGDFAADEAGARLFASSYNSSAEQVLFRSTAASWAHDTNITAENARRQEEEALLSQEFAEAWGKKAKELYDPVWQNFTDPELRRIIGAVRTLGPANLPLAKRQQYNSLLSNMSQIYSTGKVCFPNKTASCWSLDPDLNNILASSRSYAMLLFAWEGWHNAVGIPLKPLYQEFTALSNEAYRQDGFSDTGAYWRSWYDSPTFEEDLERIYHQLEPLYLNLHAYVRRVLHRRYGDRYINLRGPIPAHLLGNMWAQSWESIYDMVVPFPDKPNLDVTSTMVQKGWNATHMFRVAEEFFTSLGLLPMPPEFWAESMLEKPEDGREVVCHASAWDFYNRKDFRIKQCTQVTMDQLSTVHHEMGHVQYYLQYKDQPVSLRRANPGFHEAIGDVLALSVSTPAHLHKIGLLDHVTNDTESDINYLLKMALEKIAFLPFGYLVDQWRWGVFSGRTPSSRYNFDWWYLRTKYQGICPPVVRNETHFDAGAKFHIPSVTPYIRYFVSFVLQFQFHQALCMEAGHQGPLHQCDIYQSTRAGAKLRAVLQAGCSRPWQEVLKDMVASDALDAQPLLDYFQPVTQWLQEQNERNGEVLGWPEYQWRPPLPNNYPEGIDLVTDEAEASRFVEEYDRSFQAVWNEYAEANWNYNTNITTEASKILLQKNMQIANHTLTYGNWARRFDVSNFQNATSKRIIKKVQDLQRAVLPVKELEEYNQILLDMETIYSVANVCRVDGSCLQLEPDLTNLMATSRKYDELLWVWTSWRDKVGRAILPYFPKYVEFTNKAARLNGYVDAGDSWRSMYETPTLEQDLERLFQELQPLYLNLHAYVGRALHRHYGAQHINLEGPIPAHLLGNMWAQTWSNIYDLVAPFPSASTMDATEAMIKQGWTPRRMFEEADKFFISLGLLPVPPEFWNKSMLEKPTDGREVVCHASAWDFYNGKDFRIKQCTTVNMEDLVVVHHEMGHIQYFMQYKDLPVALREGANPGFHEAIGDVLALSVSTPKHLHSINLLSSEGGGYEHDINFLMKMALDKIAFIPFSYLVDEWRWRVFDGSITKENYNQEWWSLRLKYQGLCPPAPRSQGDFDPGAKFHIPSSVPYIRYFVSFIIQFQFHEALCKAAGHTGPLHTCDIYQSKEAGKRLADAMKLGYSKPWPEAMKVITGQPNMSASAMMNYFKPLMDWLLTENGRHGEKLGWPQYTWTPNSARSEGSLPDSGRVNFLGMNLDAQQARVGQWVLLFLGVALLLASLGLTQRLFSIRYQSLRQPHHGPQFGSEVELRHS
Procedure: (§2) b) ACE-inhibitory activity
The ACE-inhibitory activity was evaluated according to the method reported in the literature by B. Holmquist et al., in Analytical Biochemistry 95, 540-548 (1979).
[…] of ACE (250 mU/ml purified by lung rabbit, EC 3.4.15.1 SIGMA) were preincubated with 50 μl of the compound of formula I or of the comparison compound in thermostated cuvettes at 37° C.
The reaction was started by adding furylacryloylphenylalanylglycylglycine 0.8 mM (FAPGG-SIGMA).
Contemporaneously, by using a Beckman DU-50 spectrophotometer provided with a program for calculating delta A/minutes and regression coefficients of the enzyme kinetics curves, the absorbance at 340 nm was recorded in continuo for 5 minutes.
The percentage of the enzyme inhibition in the preparations treated with the compounds of formula I or with the comparative compounds with respect to the untreated preparations was expressed as IC50 (nM) value.

[3] = system: ACE (SHR lungs); experiment: Ex vivo ACE-inhibitory activity in lungs of treated SHR; design: species or system spontaneously hypertensive rats (SHR)
Procedure: (§3) The ex vivo ACE/NEP-inhibitory activity of the compounds of formula I, in particular, was evaluated by considering the enzymatic activity in tissue homogenates (lung and kidney for the ACE- and NEP-inhibitory activity, respectively) from spontaneously hypertensive rats (SHR), treated with the tested compounds by intravenous or oral route.
as §2
The ex vivo ACE-inhibitory activity was evaluated by using a radiometric assay method, as reported in the literature by J. W. Ryan et al. in Biochem. J. (1977), 167, 501-504.
The inhibitory activity of the compounds of formula I was evaluated in lungs of spontaneously hypertensive rats (SHR), 5 minutes after i.v. injection (0.6, 0.64 and 21 μmoles/kg) and 30 minutes, 60 minutes and 4 hours after oral administration (30 μmoles/kg) of the tested compounds.
After the removal of the lungs from SHR, the lung tissue was homogenized and incubated for 2 hours at 37° C. in the presence of [^3 H]Hyp-Gly-Gly, as a substrate.
The reaction was stopped by adding hydrochloric acid.
The released radiolabelled hyppuric acid was extracted with ethyl acetate and counted by liquid scintillation spectrometry, according to conventional methods.
The ACE-inhibitory activity of the tested compounds was expressed as percentage of ACE-inhibition in SHR lungs.
(§4) As an example, the percentages of basal enzymatic activity obtained in the ex vivo tests after the administration of compounds 29 and 41, as representative compounds of formula I, and of the comparison compounds R-1, R-2, R-3 and R-4 are reported in the following table 2.

[4] = system: NEP (SHR kidneys); experiment: Ex vivo NEP-inhibitory activity in kidneys of treated SHR; design: species or system spontaneously hypertensive rats (SHR)
Procedure: as §3, §1
The ex vivo NEP-inhibitory activity was evaluated according to the procedure reported in the literature by M. Orlowsky et al., in Biochemistry 1981, 20, 4942-4950.
The inhibitory activity of the compounds of formula I was evaluated in kidneys of spontaneously hypertensive rats (SHR), 5 minutes after i.v. injection (0.6, 0.64 and 21 μmoles/kg) and 30 minutes, 60 minutes and 4 hours after oral administration (30 μmoles/kg) of the tested compounds.
After the removal of the kidneys from SHR, the renal tissue was homogenized and incubated for 15 minutes at 37° C. in the presence of Glutaryl-Ala-Ala-Phe-2-naphthylamide (GAAP), as a substrate, and aminopeptidase M at pH 7.6.
The reaction was stopped by adding an aqueous solution at 10% of trichloroacetic acid.
The released 2-naphthylamine was determined by adding fast garnet dye (2 ml).
Enzyme reaction rates were determined by measuring the increase in the optical density at 524 nm (OD524) with respect to a standard obtained with 2-naphthylamine complexed with fast garnet.
The NEP-inhibitory activity of the tested compounds was expressed as percentage of NEP-inhibition in SHR kidneys.
as §4

SMILES	IC50 [1]	IC50 [2]	ACE-inhibition (lungs), 30 minutes ([3]; oral 30 μmoles/kg)	ACE-inhibition (lungs), 4 hours ([3]; oral 30 μmoles/kg)	NEP-inhibition (kidneys), 30 minutes ([4]; oral 30 μmoles/kg)	NEP-inhibition (kidneys), 4 hours ([4]; oral 30 μmoles/kg)	ACE-inhibition (lungs), 5 minutes ([3]; i.v. 0.6 μmoles/kg)	ACE-inhibition (lungs), 5 minutes ([3]; i.v. 21 μmoles/kg)	ACE-inhibition (lungs), 60 minutes ([3]; oral 30 μmoles/kg, 60 minutes)	NEP-inhibition (kidneys), 5 minutes ([4]; i.v. 0.6 μmoles/kg)	NEP-inhibition (kidneys), 5 minutes ([4]; i.v. 21 μmoles/kg)	NEP-inhibition (kidneys), 60 minutes ([4]; oral 30 μmoles/kg, 60 minutes)
O=C(N[C@@H](Cc1ccc(-c2ccccc2)cc1)C(=O)O)[C@H](CS)Cc1ccccc1 [compound 47, N-[(2R)-2-mercaptomethyl-3-phenylpropionyl]-(1,1'-biphenyl-4-yl)-L-alanine]	6.1 nM	25.3 nM	–	–	–	–	–	–	–	–	–	–
CC(CS)C(=O)N[C@@H](Cc1c[nH]c2ccccc12)C(=O)O (stereo partly drawn) [R-4, N-(3-mercapto-2-methylpropanoyl)-L-triptophan]	–	–	25%	10%	not active	not active	–	–	–	–	–	–
CC(CS)C(=O)N[C@@H](Cc1ccc(O)cc1)C(=O)O (stereo partly drawn) [R-3, N-(3-mercapto-2-methylpropanoyl)-L-tyrosine]	–	–	25%	20%	10%	5%	–	–	–	–	–	–
COc1cccc(CC(CS)C(=O)N[C@@H](Cc2ccc(-c3ccccc3)cc2)C(=O)O)c1 (single isomer, unassigned) [compound 42, N-[2-mercaptomethyl-3-(3-methoxyphenyl)propionyl]-(1,1'-biphenyl-4-yl)-L-alanine]	16 nM	7.5 nM	–	–	–	–	–	–	–	–	–	–
O=C(N[C@@H](Cc1ccccc1)C(=O)O)C(CS)Cc1ccc2c(c1)OCO2 (stereo partly drawn) [R-1, N-[3-mercapto-2-(3,4-methylenedioxyphenyl)methyl-propionyl]-(S)-phenylalanine]	–	–	25%	20%	5%	not active	–	–	–	–	–	–
O=C(N[C@@H](Cc1ccc(-c2nccs2)cc1)C(=O)O)[C@@H](CS)Cc1ccccc1 [compound 29, N-[(2S)-3-mercapto-2-phenylmethylpropionyl]-4-(2-thiazolyl)-L-phenylalanine]	–	–	60%	45%	55%	40%	15%	72%	36%	34%	49%	39%
O=C(N[C@@H](Cc1ccc(O)cc1)C(=O)O)C(CS)Cc1ccc2c(c1)OCO2 (stereo partly drawn) [R-2, N-[3-mercapto-2-(3,4-methylenedioxyphenyl)methyl-propionyl]-(S)-tyrosine]	–	–	30%	25%	30%	not active	–	–	–	–	–	–

Reference: US5760241A, “Thiol derivatives with metallopeptidase inhibitory activity” (priority 1996, dated 1998)
